Measured values as given in paper PMC8482877 (Biochemical and biophysical research communications, 2020).

Key:
[1] = Solubilization of DMPC lipid vesicles by peptides; type: physicochemical; conditions: DMPC vesicles 1 mg/mL in PBS, peptide 0.1 mg/mL, 24 °C, 660 nm
[2] = tested on: BHK cells expressing ABCA1; assay: Radiolabeled cholesterol efflux from ABCA1-BHK cells; type: cell-based; conditions: [3H]-cholesterol transferred from ABCA1-BHK cells to serum free medium containing peptides over 18 h; triplicates

VLESFKVSFLSALEEYTKKLNT
DMPC vesicle solubilization, comparison between peptides [1]: less effective than the other active peptides | ABCA1-mediated cholesterol efflux [2]: almost completely inactive
